The source of these data is patent US5601800A, “New multifunctional ligands for potential use in the design therapeutic or diagnostic radiopharmaceutical imaging agents” (Curators of the University of Missouri, priority 1994, dated 1997).

The data set can be described thus: water solubility. The data set is classed as physicochemical.

With `CCCCP(=N)(CCCC)CCCC` [tributylphosphinimine], the solubility in water entry was “soluble in water”.
